{
  "source": "patent US20110118313A1",
  "about": "“IDENTIFICATION OF A MOLECULAR SIGNATURE FOR ANTIPSYCHOTICS AND SERMS” (priority 2008, published 2011)",
  "key": {"ARPE-19 cell line": {"test_system": "ARPE-19 cell line", "experiment": "Gene expression profiling (U133A2.0 microarrays) of drug-treated ARPE-19 cells; antipsychotic signature of lipid homeostasis genes", "format": "cell-based, human", "details": "ARPE-19, 10 μM, 24 hrs; for up-regulation of the top 20 probe sets of the antipsychotic group profile: FIG. 3", "text": "The retinal pigment epithelia cell line, ARPE-19/HPV-16, was chosen to establish a database of drug profiles because it is from non-cancerous human origin, with a normal karyotype, and can easily be grown as monolayer in 96-well plates. H4 is a hypertriploid cell line from glioblastoma origin, which was used only for independent replication. Cell lines were propagated according to supplier's specifications (ATCC Manassas, Va.). Compounds were obtained from Sigma (St. Louis, Mo.) or Vanda Pharmaceuticals (Rockville, Md.). Cells were aliquoted to 96-well plates (˜2×10e5 cells/well) and incubated for 24 hrs prior to providing fresh media with a drug, or the drug vehicle (water, dimethyl sulfoxide, ethanol, methanol, or phosphate-buffered saline solution). Drugs were diluted 1000 fold in buffered Advanced D-MEM/F-12 culture medium (Invitrogen, Carlsbad, Calif.) containing non-essential amino acids and 110 mg/L sodium pyruvate. In these conditions, no significant changes of pH were expected, which was confirmed by the monitoring of the pH indicator present in the medium. A final 10 μM drug concentration was chosen because it is believed to fit in the range of physiological relevance, and has been used in other cell line studies (Ferro et al. 2006; Lamb et al. 2006). Microscopic inspection of each well was conducted at the end of the treatment to discard any instance where cells had morphological changes consistent with apoptosis, and to verify that the drug had not precipitated in the culture medium.\nCells were harvested 24 hrs after treatment and RNA extracted using the RNeasy 96 protocol (Qiagen, Valencia, Calif.). Gene expression for 22,238 probe sets of 12,490 genes was generated with U133A2.0 microarrays following the manufacture's instructions (Affymetrix, Santa Clara, Calif.). Antipsychotics were profiled in duplicate or triplicate, with multiple vehicle controls on each plate. A total of 708 microarrays were analysed including 74 for the 18 antipsychotics, 499 for the other 448 compounds, and 135 for vehicle controls.\nEach drug treatment-vehicle control pair (treatment instance) was represented by a non-parametric rank-ordered list constructed as follows, similarly to the method described by Lamb and colleagues (Lamb et al. 2006). The raw scan data were first converted to average difference values using MAS 5.0 (Affymetrix). The average difference values of both treatment and control data were set to a minimum threshold of 50 if below 50. For each treatment instance, all probe sets were then ranked based on their amplitude, or level of expression relative to the vehicle control (or average of controls when more than one was used). Amplitude was defined as the ratio of expression (t−v)/[(t+v)/2] where t corresponds to treatment instance and v to vehicle instance.\nEach drug group profile was created using our novel Weighted Influence Model, Rank of Ranks (WIMRR) method which underscores the rank of each probe set across the entire gene expression profile rather than the specific change in expression level. WIMRR takes the average rank of each probe set across all of the members of the group and then re-ranks the probe sets from smallest average rank to largest average rank.\nA gene-set enrichment metric based on the Kolmogorov-Smirnov (KS) statistic was used in a similar fashion by Lamb and colleagues (Lamb et al. 2006). Specifically, for a given set of probes, the KS score gives a measure of how up (positive) or down (negative) the set of probes occurs within the profile of another treatment instance."}, "[1]": {"details": "2-3 weeks of antipsychotic treatment, schizophrenic patients; cited from earlier work"}, "[2]": {"test_system": "Saccharomyces cerevisiae heterozygotes", "details": "cited from earlier work"}, "mouse striatum": {"test_system": "mouse striatum", "details": "cited from earlier work"}, "[3]": {"details": "women affected with schizophrenia; cited from earlier work"}, "[4]": {"details": "patients; cited from earlier work"}, "[5]": {"details": "rats; cited from earlier work"}, "[6]": {"details": "patients with bipolar disorder; cited from earlier work"}},
  "data": [
    {"smiles": "CCc1c(C)[nH]c2c1C(=O)C(CN1CCOCC1)CC2", "note": "(centres unmarked) [Molindone]", "values": [
      {"measurement": "up-regulation of the top 20 probe sets of the antipsychotic group profile", "setting": "ARPE-19 cell line", "result": "lowest effect"}
    ]},
    {"smiles": "O=C1CCc2ccc(OCCCCN3CCN(c4cccc(Cl)c4Cl)CC3)cc2N1", "note": "[aripiprazole]", "values": [
      {"measurement": "plasma levels of certain lipid classes (PE, PC, TG, LY)", "setting": "[1]", "result": "minimal effect"}
    ]},
    {"smiles": "CN(C)CCCN1c2ccccc2Sc2ccc(Cl)cc21", "note": "[chlorpromazine]", "values": [
      {"measurement": "effect on genes involved in yeast fatty acid biosynthesis, sterol biosynthesis or phospholipid transport", "setting": "[2]", "result": "strong effect"}
    ]},
    {"smiles": "CCN(CC)CCOc1ccc(C(=C(Cl)c2ccccc2)c2ccccc2)cc1", "note": "[clomiphene]", "values": [
      {"measurement": "effect on lipid homeostasis (gene expression signature)", "setting": "ARPE-19 cell line", "result": "alter lipid homeostasis"}
    ]},
    {"smiles": "OCCN1CCN(CCCN2c3ccccc3Sc3ccc(C(F)(F)F)cc32)CC1", "note": "[fluphenazine]", "values": [
      {"measurement": "up-regulation of the top 20 probe sets of the antipsychotic group profile", "setting": "ARPE-19 cell line", "result": "stronger up-regulation"}
    ]},
    {"smiles": "O=C(CCCN1CCC(O)(c2ccc(Cl)cc2)CC1)c1ccc(F)cc1", "note": "[haloperidol]", "values": [
      {"measurement": "effect on genes involved in yeast fatty acid biosynthesis, sterol biosynthesis or phospholipid transport", "setting": "[2]", "result": "strong effect"},
      {"measurement": "differential expression of genes involved in lipid metabolism", "setting": "mouse striatum", "result": "differential expression of genes involved in lipid metabolism"}
    ]},
    {"smiles": "COc1cc(C(C)=O)ccc1OCCCN1CCC(c2noc3cc(F)ccc23)CC1", "note": "[iloperidone]", "values": [
      {"measurement": "up-regulation of the top 20 probe sets of the antipsychotic group profile", "setting": "ARPE-19 cell line", "result": "stronger up-regulation"}
    ]},
    {"smiles": "CN1CCCCC1CCN1c2ccccc2Sc2ccc([S+](C)[O-])cc21", "note": "(centres unmarked) [mesoridazine]", "values": [
      {"measurement": "up-regulation of the top 20 probe sets of the antipsychotic group profile", "setting": "ARPE-19 cell line", "result": "lowest effect"}
    ]},
    {"smiles": "C[C@]12CC[C@@H]3c4ccc(O)cc4CC[C@H]3[C@@H]1CC[C@@H]2O", "note": "[oestradiol]", "values": [
      {"measurement": "symptoms of psychosis and cognitive functioning", "setting": "[3]", "result": "improve"}
    ]},
    {"smiles": "Cc1cc2c(s1)Nc1ccccc1N=C2N1CCN(C)CC1", "note": "[olanzapine]", "values": [
      {"measurement": "risk for weight gain and hyperlipidemia", "setting": "[4]", "result": "significant increased risk"}
    ]},
    {"smiles": "OCCN1CCN(CCCN2c3ccccc3Sc3ccc(Cl)cc32)CC1", "note": "[perphenazine]", "values": [
      {"measurement": "up-regulation of the top 20 probe sets of the antipsychotic group profile", "setting": "ARPE-19 cell line", "result": "stronger up-regulation"}
    ]},
    {"smiles": "O=C(c1ccc(OCCN2CCCCC2)cc1)c1c(-c2ccc(O)cc2)sc2cc(O)ccc12", "note": "[raloxifene]", "values": [
      {"measurement": "effect on lipid homeostasis (gene expression signature)", "setting": "ARPE-19 cell line", "result": "alter lipid homeostasis"}
    ]},
    {"smiles": "Cc1nc2n(c(=O)c1CCN1CCC(c3noc4cc(F)ccc34)CC1)CCCC2", "note": "[risperidone]", "values": [
      {"measurement": "plasma levels of certain lipid classes (PE, PC, TG, LY)", "setting": "[1]", "result": "significant increases"},
      {"measurement": "risk for weight gain and hyperlipidemia", "setting": "[4]", "result": "much lower risk"},
      {"measurement": "effect on lipid homeostasis (gene expression signature)", "setting": "ARPE-19 cell line", "result": "share a common gene expression signature"},
      {"measurement": "over-expression of RNAs for the desaturase genes FADS1 and FADS2", "setting": "ARPE-19 cell line", "result": "over-expression"}
    ]},
    {"smiles": "CC/C(=C(\\c1ccccc1)c1ccc(OCCN(C)C)cc1)c1ccccc1", "note": "[tamoxifen]", "values": [
      {"measurement": "obesity induced by the antipsychotic sulpiride", "setting": "[5]", "result": "prevent obesity"},
      {"measurement": "mania symptoms", "setting": "[6]", "result": "reduce mania symptoms"},
      {"measurement": "effect on lipid homeostasis (gene expression signature)", "setting": "ARPE-19 cell line", "result": "alter lipid homeostasis"}
    ]},
    {"smiles": "CN1CCN(CCCN2c3ccccc3Sc3ccc(C(F)(F)F)cc32)CC1", "note": "[trifluoperazine]", "values": [
      {"measurement": "effect on genes involved in yeast fatty acid biosynthesis, sterol biosynthesis or phospholipid transport", "setting": "[2]", "result": "strong effect"}
    ]},
    {"smiles": "O=C1Cc2cc(CCN3CCN(c4nsc5ccccc45)CC3)c(Cl)cc2N1", "note": "[ziprasidone]", "values": [
      {"measurement": "risk for weight gain and hyperlipidemia", "setting": "[4]", "result": "much lower risk"},
      {"measurement": "effect on lipid homeostasis (gene expression signature)", "setting": "ARPE-19 cell line", "result": "share a common gene expression signature"}
    ]}
  ]
}
